The values that follow come from patent US11046710B2, “Sulfonamide compounds” (DAIICHI SANKYO COMPANY, LIMITED, priority 2016, dated 2021).

This assay concerns the target human TNAP (Homo sapiens (Human), UniProt P05186). Put plainly: Inhibitory test of TNAP activity (pNPP substrate, p-nitrophenol production). The format is biochemical. The note with it: human TNAP from transfected COS1 culture supernatant, 60 minutes at room temperature. Here is the method: COS1 cells (DS Pharma Biomedical Co., Ltd.) were transfected with human TNAP (OriGene Technologies, Inc.) using Lipofectamine LTX & Plus reagent (Invitrogen Corp.). On the next day, the medium was replaced with a fresh medium, and the cells were cultured in an incubator for 3 days. After 3 days, the culture supernatant was collected and concentrated by centrifugation at 5000 G for 30 minutes using Amicon 14, 10^4 cut (Merck Millipore). The concentrated culture supernatant was dialyzed against 5 L of 50 mM Tris/200 mM NaCl/1 mM MgCl2/20 μM ZnCl2 twice and used as an enzyme source (enzyme solution). The substrate pNPP (ProteoChem Inc.) was adjusted to 3.1 mM with Milli-Q water, and a solution of each test compound dissolved in dimethyl sulfoxide (DMSO; Wako Pure Chemical Industries, Ltd.) by 6 serial dilutions at a 5-fold common ratio from 100 μM, or DMSO was added thereto at a final concentration of 1% by volume. The enzyme solution adjusted to 2 μg/mL with an assay buffer (200 mM Tris/2 mM MgCl2/0.04 mM ZnCl2/0.01% Tween 20) was added in the same amount of the substrate solution and incubated at room temperature for 60 minutes. Then, the absorbance (ABS: 405 nm) was measured using a microplate reader (model plus 384, Molecular Devices, LLC), and the concentration of produced p-nitrophenol was calculated.

The structures appear in SMILES notation.

Sequence of human TNAP (P05186 18-524): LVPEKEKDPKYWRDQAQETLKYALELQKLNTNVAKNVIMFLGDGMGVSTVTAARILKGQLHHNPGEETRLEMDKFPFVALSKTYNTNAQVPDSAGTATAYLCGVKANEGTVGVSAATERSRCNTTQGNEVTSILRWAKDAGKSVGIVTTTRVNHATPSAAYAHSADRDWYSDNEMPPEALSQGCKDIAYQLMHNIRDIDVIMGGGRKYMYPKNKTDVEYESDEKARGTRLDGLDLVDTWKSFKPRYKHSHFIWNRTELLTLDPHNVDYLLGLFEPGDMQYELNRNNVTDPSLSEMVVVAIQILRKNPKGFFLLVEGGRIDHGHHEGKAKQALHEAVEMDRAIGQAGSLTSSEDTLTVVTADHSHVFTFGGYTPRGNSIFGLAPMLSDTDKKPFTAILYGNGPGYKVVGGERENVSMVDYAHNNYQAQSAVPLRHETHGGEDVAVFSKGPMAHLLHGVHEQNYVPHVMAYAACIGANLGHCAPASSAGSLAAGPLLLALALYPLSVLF

Regarding `COc1ccc(Cl)cc1S(=O)(=O)Nc1cnc2c(c1)-c1nnc(C)n1CCO2` [Example 1, 5-chloro-2-methoxy-N-(3-methyl-5,6-dihydropyrido[3,2-f][1,2,4]triazolo[4,3-d][1,4]oxazepin-10-yl)benzenesulfonamide], it took 2.6 nM to reach half-maximal inhibition (IC50).

Consider `CCc1nnc2n1CCOc1ncc(NS(=O)(=O)c3cc(Cl)ccc3OC)cc1-2` [Example 3, 5-chloro-N-(3-ethyl-5,6-dihydropyrido[3,2-f][1,2,4]triazolo[4,3-d][1,4]oxazepin-10-yl)-2-methoxybenzenesulfonamide], for which the IC50 – broadly, the concentration that gives 50% inhibition – turned out to be 2.4 nM.

Take `COc1ccc(Cl)cc1S(=O)(=O)Nc1cnc2c(c1)-c1nnc(C(C)C)n1CCO2` [Example 5, 5-chloro-2-methoxy-N-[3-(propan-2-yl)-5,6-dihydropyrido[3,2-f][1,2,4]triazolo[4,3-d][1,4]oxazepin-10-yl]benzenesulfonamide]: the IC50 is 2.8 nM.

Consider `COc1ccc(Cl)cc1S(=O)(=O)Nc1cnc2c(c1)-c1nccn1CCO2` [Example 6, 5-chloro-N-(5,6-dihydroimidazo[1,2-d]pyrido[3,2-f][1,4]oxazepin-10-yl)-2-methoxybenzenesulfonamide], for which the midpoint of inhibition, the IC50, lay at 5.9 nM.

For `COc1ccc(Cl)cc1S(=O)(=O)Nc1cnc2c(c1)-c1ccnn1CCO2` [Example 7, 5-chloro-N-(5,6-dihydropyrazolo[1,5-d]pyrido[3,2-f][1,4]oxazepin-10-yl)-2-methoxybenzenesulfonamide], the IC50 was found to be 6.5 nM.

Turning to `CCOc1ccc(F)cc1S(=O)(=O)Nc1cnc2c(c1)-c1ccnn1CCO2` [Example 9, N-(5,6-dihydropyrazolo[1,5-d]pyrido[3,2-f][1,4]oxazepin-10-yl)-2-ethoxy-5-fluorobenzenesulfonamide], inhibition was half-maximal at 3.4 nM (IC50). This IC50 lies about 1.9-fold lower than the previous one.

With `COCCOc1ccc(F)cc1S(=O)(=O)Nc1cnc2c(c1)-c1ccnn1CCO2` [Example 11, N-(5,6-dihydropyrazolo[1,5-d]pyrido[3,2-f][1,4]oxazepin-10-yl)-5-fluoro-2-(2-methoxyethoxy)benzenesulfonamide], the IC50 was found to be 12.6 nM.

On to `COc1ncc(Cl)cc1S(=O)(=O)Nc1cnc2c(c1)-c1ccnn1CCO2` [Example 12, 5-chloro-N-(5,6-dihydropyrazolo[1,5-d]pyrido[3,2-f][1,4]oxazepin-10-yl)-2-methoxypyridine-3-sulfonamide], for which the IC50 is 8.5 nM. The IC50 values of the last two molecules are within 1.5-fold of each other.

Turning to `CCOc1ncc(Cl)cc1S(=O)(=O)Nc1cnc2c(c1)-c1ccnn1CCO2` [Example 13, 5-chloro-N-(5,6-dihydropyrazolo[1,5-d]pyrido[3,2-f][1,4]oxazepin-10-yl)-2-ethoxypyridine-3-sulfonamide], the IC50 worked out at 5.1 nM.

For the molecule `CCOc1ncc(F)cc1S(=O)(=O)Nc1cnc2c(c1)-c1ccnn1CCO2` [Example 14, N-(5,6-dihydropyrazolo[1,5-d]pyrido[3,2-f][1,4]oxazepin-10-yl)-2-ethoxy-5-fluoropyridine-3-sulfonamide], it took 3.6 nM to reach half-maximal inhibition (IC50).

With `COc1ccc(Cl)cc1S(=O)(=O)Nc1cnc2c(c1)-c1ccnn1[C@@H](C)CO2` [Example 16, 5-chloro-2-methoxy-N-[(5S)-5-methyl-5,6-dihydropyrazolo[1,5-d]pyrido[3,2-f][1,4]oxazepin-10-yl]benzenesulfonamide], the IC50 is 3.5 nM. The IC50 values of the last two molecules are within 1.5-fold of each other.

`COc1ccc(Cl)cc1S(=O)(=O)Nc1cnc2c(c1)-c1ccnn1[C@H](C)CO2` [Example 17, 5-chloro-2-methoxy-N-[(5R)-5-methyl-5,6-dihydropyrazolo[1,5-d]pyrido[3,2-f][1,4]oxazepin-10-yl]benzenesulfonamide]: the IC50 turned out to be 6.9 nM. This IC50 lies about 2-fold higher than the previous one.

Regarding `CCOc1ccc(F)cc1S(=O)(=O)Nc1cnc2c(c1)-c1ccnn1[C@@H](C)CO2` [Example 18, 2-ethoxy-5-fluoro-N-[(5S)-5-methyl-5,6-dihydropyrazolo[1,5-d]pyrido[3,2-f][1,4]oxazepin-10-yl]benzenesulfonamide], the midpoint of inhibition, the IC50, lay at 2.8 nM.

The molecule `CCOc1ccc(F)cc1S(=O)(=O)Nc1cnc2c(c1)-c1ccnn1[C@H](C)CO2` [Example 20, 2-ethoxy-5-fluoro-N-[(5R)-5-methyl-5,6-dihydropyrazolo[1,5-d]pyrido[3,2-f][1,4]oxazepin-10-yl]benzenesulfonamide] had an IC50 of 4.2 nM.

`COc1ncc(Cl)cc1S(=O)(=O)Nc1cnc2c(c1)-c1ccnn1[C@@H](C)CO2` [Example 21, 5-chloro-2-methoxy-N-[(5S)-5-methyl-5,6-dihydropyrazolo[1,5-d]pyrido[3,2-f][1,4]oxazepin-10-yl]pyridine-3-sulfonamide] had an IC50 of 3 nM. This IC50 and that of the molecule before are within 1.5-fold of each other.

`COc1ncc(Cl)cc1S(=O)(=O)Nc1cnc2c(c1)-c1ccnn1[C@H](C)CO2` [Example 23, 5-chloro-2-methoxy-N-[(5R)-5-methyl-5,6-dihydropyrazolo[1,5-d]pyrido[3,2-f][1,4]oxazepin-10-yl]pyridine-3-sulfonamide]: the IC50 worked out at 5.7 nM.

As to `CCOc1ncc(F)cc1S(=O)(=O)Nc1cnc2c(c1)-c1ccnn1[C@@H](C)CO2` [Example 24, 2-ethoxy-5-fluoro-N-[(5S)-5-methyl-5,6-dihydropyrazolo[1,5-d]pyrido[3,2-f][1,4]oxazepin-10-yl]pyridine-3-sulfonamide], the IC50 is 2.3 nM.

`COc1ccc(Cl)cc1S(=O)(=O)Nc1cnc2c(c1)-n1nccc1CCO2` [Example 26, 5-chloro-N-(4,5-dihydropyrazolo[1,5-d]pyrido[2,3-b][1,4]oxazepin-9-yl)-2-methoxybenzenesulfonamide]: half-maximal inhibition (IC50) required 29.4 nM.

The molecule `COc1ccc(Cl)cc1S(=O)(=O)Nc1cnc2c(c1)C(=O)N1CCC[C@H]1CO2` [Example 27, 5-chloro-2-methoxy-N-[(9aS)-5-oxo-8,9,9a,10-tetrahydro-5H,7H-pyrido[3,2-f]pyrrolo[2,1-c][1,4]oxazepin-3-yl]benzenesulfonamide] yielded an IC50 of 13.2 nM.

As for `COc1ccc(Cl)cc1S(=O)(=O)Nc1cnc2c(c1)C(=O)N1CCC[C@@H]1CO2` [Example 28, 5-chloro-2-methoxy-N-[(9aR)-5-oxo-8,9,9a,10-tetrahydro-5H,7H-pyrido[3,2-f]pyrrolo[2,1-c][1,4]oxazepin-3-yl]benzenesulfonamide], the IC50 amounted to 1.2 nM.

As to `COc1ccc(Cl)cc1S(=O)(=O)Nc1cnc2c(c1)C(=O)N1C[C@H](O)C[C@H]1CO2` [Example 29, 5-chloro-N-[(8R,9aS)-8-hydroxy-5-oxo-8,9,9a,10-tetrahydro-5H,7H-pyrido[3,2-f]pyrrolo[2,1-c][1,4]oxazepin-3-yl]-2-methoxybenzenesulfonamide], the IC50 was 7.1 nM.

In turn, `COc1ccc(Cl)cc1S(=O)(=O)Nc1cnc2c(c1)C(=O)N1C[C@@H](O)C[C@@H]1CO2` [Example 30, 5-chloro-N-[(8S,9aR)-8-hydroxy-5-oxo-8,9,9a,10-tetrahydro-5H,7H-pyrido[3,2-f]pyrrolo[2,1-c][1,4]oxazepin-3-yl]-2-methoxybenzenesulfonamide] yielded an IC50 of 0.9 nM.

`COc1ccc(F)cc1S(=O)(=O)Nc1cnc2c(c1)C(=O)N1C[C@@H](O)C[C@@H]1CO2` [Example 31, 5-fluoro-N-[(8S,9aR)-8-hydroxy-5-oxo-8,9,9a,10-tetrahydro-5H,7H-pyrido[3,2-f]pyrrolo[2,1-c][1,4]oxazepin-3-yl]-2-methoxybenzenesulfonamide] displayed an IC50 of 1.2 nM.

Molecule `O=C1c2cc(NS(=O)(=O)c3cc(Cl)ccc3OC(F)(F)F)cnc2OC[C@H]2C[C@H](O)CN12` [Example 32, 5-chloro-N-[(8S,9aR)-8-hydroxy-5-oxo-8,9,9a,10-tetrahydro-5H,7H-pyrido[3,2-f]pyrrolo[2,1-c][1,4]oxazepin-3-yl]-2-(trifluoromethoxy)benzenesulfonamide] showed an IC50 of 0.9 nM.

The molecule `O=C1c2cc(NS(=O)(=O)c3cc(F)ccc3OC(F)(F)F)cnc2OC[C@H]2C[C@H](O)CN12` [Example 34, 5-fluoro-N-[(8S,9aR)-8-hydroxy-5-oxo-8,9,9a,10-tetrahydro-5H,7H-pyrido[3,2-f]pyrrolo[2,1-c][1,4]oxazepin-3-yl]-2-(trifluoromethoxy)benzenesulfonamide] returned an IC50 of 1.6 nM.

In turn, `COc1ccc(Cl)cc1S(=O)(=O)Nc1cnc2c(c1)C(=O)N1C[C@H](O)C[C@@H]1CO2` [Example 35, 5-chloro-N-[(8R,9aR)-8-hydroxy-5-oxo-8,9,9a,10-tetrahydro-5H,7H-pyrido[3,2-f]pyrrolo[2,1-c][1,4]oxazepin-3-yl]-2-methoxybenzenesulfonamide] had an IC50 of 0.9 nM.

With `COc1ccc(F)cc1S(=O)(=O)Nc1cnc2c(c1)C(=O)N1C[C@H](O)C[C@@H]1CO2` [Example 36, 5-fluoro-N-[(8R,9aR)-8-hydroxy-5-oxo-8,9,9a,10-tetrahydro-5H,7H-pyrido[3,2-f]pyrrolo[2,1-c][1,4]oxazepin-3-yl]-2-methoxybenzenesulfonamide], the IC50 came to 1.5 nM.

On to `O=C1c2cc(NS(=O)(=O)c3cc(Cl)ccc3OC(F)(F)F)cnc2OC[C@H]2C[C@@H](O)CN12` [Example 37, 5-chloro-N-[(8R,9aR)-8-hydroxy-5-oxo-8,9,9a,10-tetrahydro-5H,7H-pyrido[3,2-f]pyrrolo[2,1-c][1,4]oxazepin-3-yl]-2-(trifluoromethoxy)benzenesulfonamide], for which it took 1.4 nM to reach half-maximal inhibition (IC50).
